Source: patent US20050276762A1, “Topical compositions containing 5'-adenosine-diphosphate ribose” (priority 2004, published 2005)

Legend:
Human A549 cells = conditions: for cytoprotection against H2O2 (in words): same concentration as ADP-ribose (25 or 50 μg/ml)
[1] = target: poly (ADP-ribose) polymerase (PARP) (Homo sapiens, UniProt P09874); experiment: PARP assay (in vitro PARP inhibition); type: biochemical; conditions: same concentration as ADP-ribose (4 to 10 mM); FIG. 2
Experimental: 1. […] 2. Cover the plate with an adhesive plate sealer and incubate for 2 hours at room temperature (or overnight at 2-8° C.). 1. […] After the last wash, remove any remaining PBS by decanting. Invert the plate and blot it against clean paper toweling. Note, at this time plates can be air dried and stored covered at room temperature for later use. 2. Block the wells by adding 50 μL of Strep Diluent to each well. 3. Cover the plate with an adhesive plate sealer and incubate for 1 hour at room temperature (or overnight at 2-8° C.). […] PARP will autoribosylate in the presence of NAD. 1. […] After the last wash, remove any remaining PBS by decanting. Invert the plate and blot it against clean paper toweling. 2. […] 3. Add inhibitor of interest. The final reaction volume is 50 μL/well. […] Enzyme is added last. • For 24 wells: Make for 20=2×0.5 units=10 units • 20 wells×5 μL=100 μL 10 μL enzyme+90 μl of 1× PARP buffer […] 5. Incubate the plate for 30 minutes at room temperature. The extent of ribosylation is time dependant; therefore this step can be extended if desired. 1. […] After the last wash, remove any remaining PBS by decanting. Invert the plate and blot it against clean paper toweling. 2. Dilute Strep-HRP • Dilute 1:500 • For 20 wells=1,100 μL Strep diluent+2.2 μL Strep-HRP • Add 50 μL of diluted Strep-HRP to each well. 3. Incubate for 30 minutes at 37° C. […] After the last wash, remove any remaining PBS by decanting. Invert the plate and blot it against clean paper toweling. 5. Add 50 μL TACS-Sapphire dye to each well. Incubate for 10 minutes in the dark.

Sequence of poly (ADP-ribose) polymerase (PARP) (P09874 whole entry): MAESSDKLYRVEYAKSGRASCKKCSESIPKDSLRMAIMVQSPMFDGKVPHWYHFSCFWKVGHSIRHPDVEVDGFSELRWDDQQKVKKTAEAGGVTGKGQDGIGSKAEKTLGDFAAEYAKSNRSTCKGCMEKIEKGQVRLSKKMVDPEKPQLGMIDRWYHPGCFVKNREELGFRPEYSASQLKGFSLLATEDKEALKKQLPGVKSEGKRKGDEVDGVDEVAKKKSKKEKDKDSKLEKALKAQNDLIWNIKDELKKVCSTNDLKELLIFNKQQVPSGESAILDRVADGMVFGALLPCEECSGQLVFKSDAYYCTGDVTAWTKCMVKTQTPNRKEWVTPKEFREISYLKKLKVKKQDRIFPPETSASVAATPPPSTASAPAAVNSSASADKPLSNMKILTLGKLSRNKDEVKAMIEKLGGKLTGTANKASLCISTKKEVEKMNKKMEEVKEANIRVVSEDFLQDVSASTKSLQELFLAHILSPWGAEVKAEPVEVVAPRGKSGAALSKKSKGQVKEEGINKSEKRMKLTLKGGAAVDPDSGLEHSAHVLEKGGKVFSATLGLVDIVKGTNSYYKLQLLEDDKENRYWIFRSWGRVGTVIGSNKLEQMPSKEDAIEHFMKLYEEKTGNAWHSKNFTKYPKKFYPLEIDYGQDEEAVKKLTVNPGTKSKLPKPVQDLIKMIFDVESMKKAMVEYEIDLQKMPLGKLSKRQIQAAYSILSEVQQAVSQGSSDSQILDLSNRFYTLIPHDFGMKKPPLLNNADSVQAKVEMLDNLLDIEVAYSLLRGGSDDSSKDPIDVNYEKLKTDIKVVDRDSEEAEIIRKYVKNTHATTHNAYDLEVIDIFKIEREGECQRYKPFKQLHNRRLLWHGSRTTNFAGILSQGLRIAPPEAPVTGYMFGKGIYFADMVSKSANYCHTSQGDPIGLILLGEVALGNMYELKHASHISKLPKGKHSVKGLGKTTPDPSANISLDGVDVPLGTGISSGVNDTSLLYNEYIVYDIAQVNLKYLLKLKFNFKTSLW

SMILES | protection of cells from cytotoxicity mediated cell death (in words) (Human A549 cells) | cytoprotection against H2O2 (in words) (Human A549 cells) | inhibition of PARP activity (in words) [1] | protection from H2O2 cytotoxicity (Human A549 cells)
N=c1c2ncn3c2ncn1[C@@H]1O[C@H](COP(=O)(O)OP(=O)(O)OC[C@H]2O[C@@H]3[C@H](O)[C@@H]2O)[C@@H](O)[C@H]1O [cADP-ribose] | unable to protect cells from cytotoxicity mediated cell death |  |  | 
Nc1ncnc2c1ncn2[C@@H]1O[C@H](COP(=O)(O)O)[C@@H](O)[C@H]1O [AMP] |  | cytoprotection was specific to ADP-ribose | unable to inhibit PARP activity | 
Nc1ncnc2c1ncn2[C@@H]1O[C@H](CO)[C@@H](O)[C@H]1O [adenosine] |  | cytoprotection was specific to ADP-ribose | unable to inhibit PARP activity | 
Nc1ncnc2c1ncn2[C@@H]1O[C@H](COP(=O)(O)OP(=O)(O)O[C@H]2O[C@H](CO)[C@@H](O)[C@H](O)[C@H]2O)[C@@H](O)[C@H]1O [ADP-glucose] |  | cytoprotection was specific to ADP-ribose | unable to inhibit PARP activity | ~25%
